Assay results as given in publication PMC5897774, “Mitotic spindle association of TACC3 requires Aurora‐A‐dependent stabilization of a cryptic α‐helix” (The EMBO Journal, 2018).
Like-named read-outs stand apart in the source and are kept apart here. Blank lines part the entries; values can stand above or below the molecule they belong to. Residues, ends and D or L forms follow the SMILES beside them. No end group written: not given here.

Key:
[1] = target: T1, Aurora‐A (Homo sapiens, UniProt O14965, C290A/C393A); assay: FP binding assay, FAM-TACC3 peptides to Aurora‐A (WT); conditions: fluorescence polarization
T1 construct: pET30TEV Aurora‐A 122–403 C290A, C393A; made in house
T1 sequence (O14965 122-403 C290A/C393A): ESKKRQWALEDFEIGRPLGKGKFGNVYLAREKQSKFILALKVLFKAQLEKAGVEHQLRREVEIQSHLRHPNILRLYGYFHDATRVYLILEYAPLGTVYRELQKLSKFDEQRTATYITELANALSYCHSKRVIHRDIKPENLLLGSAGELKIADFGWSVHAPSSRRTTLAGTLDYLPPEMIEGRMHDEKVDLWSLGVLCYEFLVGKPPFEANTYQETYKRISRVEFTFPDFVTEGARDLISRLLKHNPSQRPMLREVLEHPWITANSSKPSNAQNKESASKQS
Description: The contributions of the site 1 residues to the interaction were quantified using fluorescence polarization spectroscopy (FP) with a set of fluorescein (FAM)‐labelled peptides. […] Mutations within the pocket on Aurora‐A which accommodates the F525 side chain (E134A, R137A, L149A, R151A and I158A mutations) all reduced the affinity for the WT TACC3 522–536 peptide.
Aurora‐A/TACC3 fluorescence polarization assays were performed as stated (Richards et al, 2016) using FAM‐TACC3 peptides (PPR, Cambridge; Almac, Craigavon). Binding assays were performed in triplicate. FP signal was fit to a one‐site total binding model in Prism 6 (GraphPad). Results are reported as K d ± SE.

[2] = NMR chemical shift index analysis of TACC3 549–570 helicity; format: physicochemical; conditions: 2 mM peptide, 20 mM Tris pH 7.2, 50 mM NaCl, 290 K, αH and αC secondary shifts
Excerpt: We used NMR spectroscopy to determine the extent to which these α‐helices are present in TACC3 in the absence of binding partners in solution. Chemical shift index (CSI) plots were created for phosphorylated and unphosphorylated TACC3^CID following standard methods (Fig 7D and E; Wishart & Sykes, 1994). In addition to calculating α‐proton chemical shifts we also measured secondary chemical shifts for α‐carbons. After the type of amino acid, the main contribution to chemical shifts of α‐carbons is the ψ angle and thus the backbone conformation. Proximity of charges or aromatic side chains which can strongly affect proton chemical shifts has virtually no effect on the chemical shifts of α‐carbons which makes them very robust probes of backbone conformation. […] We concluded that phosphorylation of S558 increases the propensity for α‐helix formation in TACC3, and we examined the structure to identify the mechanism.
For analysis of TACC3 549–570 helicity, synthetic peptides were weighed in to give a sample concentration of 2 mM in 20 mM Tris pH 7.2 and 50 mM NaCl. Spectra were recorded at a temperature of 290 K on a Bruker Avance‐Neo 600 MHz spectrometer equipped with a prodigy cryoprobe. Peptides were assigned using 2D NOESY, TOCSY and 13C HSQC spectra recorded with watergate and gradient coherence selection, respectively. […]

[3] = test system: mitotic spindle, HeLa cells; assay: Spindle localization of re‐expressed GFP‐CHC constructs in CHC‐depleted HeLa cells; format: cell-based, human; conditions: metaphase, endogenous CHC depleted, confocal imaging
Description: For RNAi and re‐expression of GFP‐tagged proteins in HeLa cells, siRNA and pBrain plasmids were used. Briefly, for TACC3, cells were transfected with siRNA on day 0, transfected 10 h later with pBrain plasmid and analysed on day 2. For CHC, cells were transfected with siRNA on day 0, transfected with pBrain plasmids on day 2 and fixed on day 4.
For immunofluorescence studies on the CHC/TACC3 interface mutants, cells were fixed with PTEMF (50 mM PIPES, pH 7.2, 10 mM EGTA, 1 mM MgCl2, 0.2% Triton X‐100, and 4% paraformaldehyde) for 15 min at RT, and then permeabilized (PBS with 0.1% Triton X‐100) for 10 min. Cells were blocked (PBS with 3% BSA, 5% goat serum) for 30 min, and then incubated for 1 h with the specified primary antibodies: mouse anti‐CHC (X22, Affinity BioReagents, 1:1,000), rabbit anti‐alpha tubulin (Thermo, PA5‐19489, 1:1,000), mouse anti‐TACC3 (AbCam, ab56595, 1:1,000). Secondary antibodies labelled with Alexa Fluor 568 or Alexa Fluor 647 from Life Technologies (diluted 1:500) were used along with DAPI. […] Equal exposure settings and scaling were used between conditions.
For spindle enrichment analysis, mean pixel density in two 10 × 10 pixel ROI was measured either over the spindle (away from poles), in the cytoplasm or in a non‐cell region of background, using ImageJ. Background was subtracted from the spindle and cytoplasm measurements, and spindle fluorescence was then divided by cytoplasm fluorescence. Sample sizes 48–53 cells (TACC3) and 36–51 cells (CHC) over two experiments were analysed per condition. […] Differences in spindle recruitment were evident at all expression levels. IgorPro was used to find and plot the ratio of spindles to cytoplasmic fluorescence intensity per cell. Images were cropped in ImageJ, and figures were assembled in Adobe Illustrator. Some images were contrast adjusted for presentation.

[4] = target: T1, Aurora‐A; assay: Radioactive 32P‐ATP kinase assay, MBP substrate; format: biochemical; conditions: 0.625 μM phosphorylated Aurora‐A, 5 μM TACC3^N‐ACID, 0.25 mg/ml MBP, 10 min, scintillation counting, duplicate
Description: Figure EV2 Biochemical and structural analysis of the Aurora‐A/TACC3 complex • FP assay between FAM‐TACC3 519–570 and Aurora‐A. Reactions were performed in triplicate. Error bars represent standard deviation. […] Error bars represent standard deviation. […] This peptide was based on the location of a sulphate ion, originating from the crystallization solution, at the interface of the Aurora‐A/TACC3 interface in the crystal structure, close to TACC3 T534. […] Myelin basic protein (MBP) was used as a generic kinase substrate. Incorporation of radioisotope was measured by scintillation counting. Reactions were performed in duplicate. Error bars represent standard error. Assays were compared to the WT TACC3^N‐ACIDH6c reaction by one‐way ANOVA with Dunnett's post hoc test. […], **P < 0.01 and ****P < 0.0001. • Multiple sequence alignment of TACC3 (above) and Aurora‐A (below) orthologs spanning the interaction binding interface. Key binding residues are boxed in red. The TACC3 phosphorylation sites, S552 and S558, are boxed in blue. The TACC3 LL motif required for binding to CHC is boxed in green. The TACC3 α‐helix produced on binding to CHC is identified by a black line. TEXT PRINTED IN THE PICTURE: (A) TACC3 519-570: 3.0 ± 0.2 μM | (B) WT: 20 ± 1 μM | (B) R526A: 49 ± 2 μM | (B) phospho-T534: 14 ± 1 μM
Radioactive ^32P‐ATP kinase assays were performed as described previously (Burgess et al, 2015). In brief, 0.625 μM Aurora‐A^M3KD WT or selected mutant was incubated with 0.25 mg/ml MBP alone and in the presence of 5 μM TACC3^N‐ACID WT or mutant for 10 min. Reactions were terminated by the addition of 2% (v/v) orthophosphoric acid. Samples were spotted onto P81 Whatman paper, washed extensively with 0.2% (v/v) orthophosphoric acid and incorporation of radioisotope measured by scintillation counting.

[5] = test system: unphosphorylated Aurora‐A KD; assay: Autophosphorylation assay of unphosphorylated Aurora‐A KD (Western blot αphospho‐T288); format: biochemical, human; conditions: unphosphorylated Aurora‐A 122–403, 1 h, room temperature
Excerpt: (§1) Figure 2 TACC3 523–534 forms a docking interaction on the N‐lobe of Aurora‐A • Magnified view of the site 1 interaction. • Schematic showing the key features of the TACC3/Aurora‐A interface. • FP assays of binding between site 1 of TACC3 and Aurora‐A. The sequence of TACC3 present in the complex crystal structure is shown (top) with the residues of the site 1 FP peptide coloured orange and mutated residues identified by coloured circles corresponding to the curves shown in the FP assay (below). Data represent mean of three experiments ± SD. […] Data represent mean of three experiments ± SD. […] Reactions were analysed by SDS–PAGE (above) and Western blotting with an αphospho‐T288 Aurora‐A antibody (below). […] They are listed as printed.
(§2) Autophosphorylation assays were performed as for radioactive ^32P‐ATP reactions using Aurora‐A 122–403 co‐expressed with lambda phosphatase for 1 h at room temperature with His‐Aurora‐A D274N as a substrate in replace of MBP. Reactions were resolved by SDS–PAGE and subject to Western blotting using an α‐phospho‐T288 Aurora‐A antibody (CST 2914, 1:2,000) as per the manufacturer's recommendation.

[6] = test system: Aurora‐A KD (substrate: Aurora‐A D274N); assay: Substrate phosphorylation of kinase‐dead Aurora‐A D274N by Aurora‐A KD (Western blot αphospho‐T288); format: biochemical, human; conditions: Aurora‐A D274N as substrate, 1 h, room temperature
Excerpt: as §1, §2

[7] = target: T1, Aurora‐A; parameters: method as in Burgess et al, 2015; conditions: previous data, effect of F525A mutation; ref Burgess et al, 2015; read-out: K d of the interaction; cited from earlier work
[8] = target: T2, FAM‐TACC3 549–570 phosphorylated on S558 (FAM‐phospho‐TACC3^CID) (human, UniProt Q9Y6A5 549-570, fluorescein (FAM) label; phosphoserine at 558); assay: fluorescence polarisation; CHC proteins serially diluted in 20 mM HEPES–NaOH pH 7.5, 200 mM NaCl, 5 mM DTT; 50 nM FAM‐labelled TACC3 peptide; 30 min at room temperature; read at 25°C; conditions: both partners purified
T2 construct: TACC3, human, aa549–570 (TACC3^CID); also called pTACC3^CID; FAM‐labelled pTACC3^CID; source: FAM‐labelled peptide (FAM‐TACC3 peptides: PPR, Cambridge; Almac, Craigavon)
T2 peptide (looked up): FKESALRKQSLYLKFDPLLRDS

Kd ([1]; FAM‐labelled peptide, triplicate, one‐site total binding fit, legend: mean of three experiments ± SD, methods: K d ± SE, read-out: K d (binding affinity)): 3 ± 0.2 µM
Molecule: ELKEESFRDPAEVLGTGAEVDYLEQFGTSSFKESALRKQSLYLKFDPLLRDS [FAM‐TACC3 519–570]

propensity for helix formation (CSI) [2]: much higher propensity
Molecule: FKESALRKQSLYLKFDPLLRDS [phosphorylated peptide, synthetic TACC3 549–570 peptide phosphorylated at S558, used for NMR]

Molecule: GFP‐CHC L503A, Y504A: GFP-CHC mutated in the TACC3 binding site
spindle localization of GFP‐CHC construct [3]: impaired in spindle localization

stimulation of Aurora‐A activity [4]: twofold–threefold
Molecule: TACC3^N‐ACID L532A: TACC3^N-ACID with L532A mutation (ELKEESFRDPAEVAGTGAEVDYLEQFGTSSFKESALRKQSLYLKF; not fully specified (C-terminus))

reduced affinity ([1]; relative to WT TACC3 522–536 peptide): 10 fold
Molecule: CC(C)[C@H](NC(=O)[C@H](CCC(=O)O)NC(=O)[C@H](C)NC(=O)[C@@H]1CCCN1C(=O)[C@H](CC(=O)O)NC(=O)[C@H](CCCNC(=N)N)NC(=O)[C@H](Cc1ccccc1)NC(=O)[C@H](CO)NC(=O)[C@H](CCC(=O)O)NC(=O)[C@H](CCC(=O)O)NC(=O)c1ccc2c(c1)C(=O)OC21c2ccc(O)cc2Oc2cc(O)ccc21)C(=O)N[C@@H](C)C(=O)NCC(=O)N[C@H](C(=O)NCC(=O)N[C@@H](C)C(=O)O)[C@@H](C)O [L532A] (HELM PEPTIDE1{[O=C1OC2(c3ccc(O)cc3Oc3cc(O)ccc32)c2ccc(C(=O)[*:2])cc21].E.E.S.F.R.D.P.A.E.V.A.G.T.G.A}$$$$V2.0; N-terminus and C-terminus assumed)

Molecule: GFP‐CHC L476D, L480D: GFP-CHC mutated in the TACC3 binding site
spindle localization of GFP‐CHC construct [3]: impaired in spindle localization

Molecule: GFP‐CHC R481E: GFP-CHC mutated in the TACC3 binding site
spindle localization of GFP‐CHC construct [3]: impaired in spindle localization

Molecule: GFP‐CHC D455K: mutation of a residue that holds R481 in place
spindle localization of GFP‐CHC construct [3]: impaired in spindle localization

stimulation of Aurora‐A activity [4]: twofold–threefold
Molecule: TACC3^N‐ACID F525A: TACC3^N-ACID with F525A mutation (ELKEESARDPAEVLGTGAEVDYLEQFGTSSFKESALRKQSLYLKF; not fully specified (C-terminus))
Aurora‐A autophosphorylation on T288 [5]: reduced | substrate phosphorylation on T288 (Aurora‐A D274N) [6]: reduced | Kd [7]: > 150 µM

fold increase in Kd against WT [8]: > 6 fold
B1: CHC 1–574 F492Y (domain or fragment, UniProt Q00610 1-574, looked up)
chain: MAQILPIRFQEHLQLQNLGINPANIGFSTLTMESDKFICIREKVGEQAQVVIIDMNDPSNPIRRPISADSAIMNPASKVIALKAGKTLQIFNIEMKSKMKAHTMTDDVTFWKWISLNTVALVTDNAVYHWSMEGESQPVKMFDRHSSLAGCQIINYRTDAKQKWLLLTGISAQQNRVVGAMQLYSVDRKVSQPIEGHAASFAQFKMEGNAEESTLFCFAVRGQAGGKLHIIEVGTPPTGNQPFPKKAVDVFFPPEAQNDFPVAMQISEKHDVVFLITKYGYIHLYDLETGTCIYMNRISGETIFVTAPHEATAGIIGVNRKGQVLSVCVEEENIIPYITNVLQNPDLALRMAVRNNLAGAEELFARKFNALFAQGNYSEAAKVAANAPKGILRTPDTIRRFQSVPAQPGQTSPLLQYFGILLDQGQLNKYESLELCRPVLQQGRKQLLEKWLKEDKLECSEELGDLVKSVDPTLALSVYLRANVPNKVIQCYAETGQVQKIVLYAKKVGYTPDWIFLLRNVMRISPDQGQQFAQMLVQDEEPLADITQIVDVFMEYNLIQQCTAFLLDALKNNR
notes: source: expressed and purified as the WT protein (modified pGEX vector; GST cleaved with TEV)
